These molecules were tested against T1, human ADRA2B receptor (Homo sapiens, UniProt P18089) (assay: GTPγS agonist assay, ADRA2B receptor). Conditions: read-out: GTPase - Human Alpha2B EC50.
T1 construct: expressed in transfected cells
T1 sequence (P18089 1-450): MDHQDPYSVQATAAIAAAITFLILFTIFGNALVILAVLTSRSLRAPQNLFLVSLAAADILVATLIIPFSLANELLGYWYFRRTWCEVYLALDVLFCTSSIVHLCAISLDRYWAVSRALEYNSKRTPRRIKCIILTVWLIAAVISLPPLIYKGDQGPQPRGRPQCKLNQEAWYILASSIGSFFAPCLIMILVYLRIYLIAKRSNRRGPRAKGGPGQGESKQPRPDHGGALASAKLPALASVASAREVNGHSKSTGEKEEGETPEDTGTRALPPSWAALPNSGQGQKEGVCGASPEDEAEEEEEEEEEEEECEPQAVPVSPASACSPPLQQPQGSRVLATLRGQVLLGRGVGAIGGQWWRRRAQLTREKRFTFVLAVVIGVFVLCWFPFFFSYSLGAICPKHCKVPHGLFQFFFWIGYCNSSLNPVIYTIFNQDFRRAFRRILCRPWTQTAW
Type: biochemical
Outline: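 CHO-K1 membranes stably expressing human ADRA2B (5 μg protein) in 20 mM HEPES, 10 mM MgCl2, 200 mM NaCl with GDP, preincubated 10 min at room temperature with compound. Binding reaction 1 h at 37° C; bound label collected on GF/C filters, washed, read by scintillation counting.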

EC50	Compound
< 10 nM	COc1cccc(C[C@H](c2c[nH]cn2)c2cccc(C)c2C)n1 [Compound 3, 2-[(2S)-2-(2,3-dimethylphenyl)-2-(1H-imidazol-4-yl)ethyl]-6-methoxypyridine]
> 500 nM	Fc1cccc(C(Cc2cccnn2)c2c[nH]cn2)c1Cl (centres unmarked) [Compound 218, 3-[2-(2-chloro-3-fluorophenyl)-2-(4-imidazolyl)ethyl] pyridazine]
50 to 500 nM	COc1ncc(C[C@@H](c2c[nH]cn2)c2cccc(Cl)c2C)cn1 [Compound 108, 5-[(R)-2-(3-chloro-2-tolyl)-2-(4-imidazolyl)ethyl]-2-methoxy-pyrimidine]
< 10 nM	COc1cc(CC(c2c[nH]cn2)c2cccc3c2OCC3)nc(OC)n1 (centres unmarked) [Compound 335, 4-(2-(2,3-dihydrobenzofuran-7-yl)-2-(1H-imidazol-4-yl)ethyl)-2,6-dimethoxypyrimidine]
< 10 nM	COc1cccc(C[C@H](c2cnc[nH]2)c2cccc(C)c2OC)n1 [Compound 9, 2-[(2S)-2-(1H-imidazol-4-yl)-2-(2-methoxy-3-methylphenyl)ethyl]-6-methoxypyridine]
> 500 nM	FC(F)(F)Oc1ccccc1[C@@H](Cc1ccccn1)c1cnc[nH]1 [Compound 30, 2-[(2R)-2-(1H-imidazol-4-yl)-2-[2-(trifluoromethoxy)phenyl]ethyl] pyridine]
10 to 50 nM	Cc1cccc([C@H](Cc2ccn(C)n2)c2c[nH]cn2)c1C [Compound 106, 3-[(S)-2-(4-imidazolyl)-2-(2,3-xylyl)ethyl]-1-methylpyrazole]
10 to 50 nM	COc1cccc(C[C@H](c2c[nH]cn2)c2cccc(Cl)c2OC)n1 [Compound 7, 2-[(2S)-2-(3-chloro-2-methoxyphenyl)-2-(1H-imidazol-4-yl)ethyl]-6-methoxypyridine]
> 500 nM	COc1c(C)cccc1[C@H](Cc1ccccn1)c1cnc[nH]1 [Compound 33, 2-[(2S)-2-(1H-imidazol-4-yl)-2-(2-methoxy-3-methylphenyl)ethyl]pyridine]
50 to 500 nM	COc1c(C)cccc1C(Cc1ccnc(C)n1)c1c[nH]cn1 (centres unmarked) [Compound 148, 4-[2-(4-imidazolyl)-2-(2-methoxy-3-tolyl)ethyl]-2-methylpyrimidine]
> 500 nM	Cc1ccc(C(F)(F)F)cc1C(Cc1cccnn1)c1c[nH]cn1 (centres unmarked) [Compound 221, 3-{2-(4-imidazolyl)-2-[5-(trifluoromethyl)-2-tolyl]ethyl}pyridazine]
50 to 500 nM	FC1(F)Oc2cccc([C@@H](Cc3ccccn3)c3c[nH]cn3)c2O1 [Compound 121, 4-[(R)-1-(4-imidazolyl)-2-(2-pyridyl)ethyl]-2,2-difluoro-2H-1,3-benzodioxole]
< 10 nM	Cc1cccc(C(Cc2cc(C(F)(F)F)nn2C)c2c[nH]cn2)c1C (centres unmarked) [Compound 310, 5-[2-(4-imidazolyl)-2-(2,3-xylyl)ethyl]-1-methyl-3-(trifluoromethyl)pyrazole]
< 10 nM	COc1cccc(C[C@H](c2c[nH]cn2)c2cccc(C)c2F)n1 (single isomer, unassigned) [Compound 5]
< 10 nM	Cc1cccc(C(Cc2ccnn2C)c2c[nH]cn2)c1C (centres unmarked) [Compound 127, 5-[2-(4-imidazolyl)-2-(2,3-xylyl)ethyl]-1-methyl-pyrazole]
> 500 nM	Cc1cccc([C@H](Cc2cccnn2)c2c[nH]cn2)c1F [Compound 138, 3-[(S)-2-(2-fluoro-3-tolyl)-2-(4-imidazolyl)ethyl] pyridazine]

EC50	Compound
> 500 nM	FC(F)Oc1cccc([C@@H](Cc2ccccn2)c2cnc[nH]2)c1 [Compound 38, 2-[(2R)-2-[3-(difluoromethoxy)phenyl]-2-(1H-imidazol-4-yl)ethyl]pyridine]
> 500 nM	FC(F)(F)Oc1ccccc1[C@H](Cc1ccccn1)c1cnc[nH]1 [Compound 29, 2-[(2S)-2-(1H-imidazol-4-yl)-2-[2-(trifluoromethoxy)phenyl]ethyl] pyridine]
10 to 50 nM	COc1cccc(C(Cc2ccnc(C)n2)c2c[nH]cn2)c1C (centres unmarked) [Compound 149, 4-[2-(4-imidazolyl)-2-(3-methoxy-2-tolyl)ethyl]-2-methylpyrimidine]
50 to 500 nM	COc1nccc(CC(c2c[nH]cn2)c2cccc(Cl)c2C#N)n1 (centres unmarked) [Compound 196, 6-chloro-2-[1-(4-imidazolyl)-2-(2-methoxy-4-pyrimidinyl)ethyl] benzonitrile]
10 to 50 nM	COc1nccc(CC(c2c[nH]cn2)c2cccc(OC)c2C)n1 (centres unmarked) [Compound 178, 4-[2-(4-imidazolyl)-2-(3-methoxy-2-tolyl)ethyl]-2-methoxypyrimidine]
10 to 50 nM	COc1cccc(C[C@@H](c2cccc(Cl)c2)c2cnc[nH]2)n1 [Compound 21, 2-[(2S)-2-(3-chlorophenyl)-2-(1H-imidazol-4-yl)ethyl]-6-methoxypyridine]
> 500 nM	c1cncc(CC(c2cnc[nH]2)c2cccc3c2CCO3)c1 (centres unmarked) [Compound 57, 3-[2-(2,3-dihydro-1-benzofuran-4-yl)-2-(1H-imidazol-4-yl)ethyl] pyridine]
< 10 nM	COc1cccc(C[C@@H](c2cnc[nH]2)c2cccc(OC)c2C)n1 [Compound 27, 2-[(2R)-2-(1H-imidazol-4-yl)-2-(3-methoxy-2-methylphenyl)ethyl]-6-methoxypyridine]
10 to 50 nM	FC(F)Oc1cccc([C@H](Cc2ccccn2)c2cnc[nH]2)c1 [Compound 37]
> 500 nM	c1ccc(C[C@H](c2cnc[nH]2)c2cccc3c2OCC3)nc1 [Compound 43, 2-[(2S)-2-(2,3-dihydro-1-benzofuran-7-yl)-2-(1H-imidazol-4-yl)ethyl] pyridine]
10 to 50 nM	COc1cccc(C[C@@H](c2cnc[nH]2)c2cccc3c2CCO3)n1 [Compound 19, 2-[(2R)-2-(2,3-dihydro-1-benzofuran-4-yl)-2-(1H-imidazol-4-yl)ethyl]-6-methoxypyridine]
> 500 nM	Cn1ncc2cc(C(Cc3cccnn3)c3c[nH]cn3)ccc21 (centres unmarked) [Compound 230, 5-[1-(4-imidazolyl)-2-(3-pyridazinyl)ethyl]-1-methyl-1H-indazole]
> 500 nM	COc1cccc(C(Cc2cccnn2)c2c[nH]cn2)c1F (centres unmarked) [Compound 360, 3-[2-(2-fluoro-3-methoxyphenyl)-2-(4-imidazolyl)ethyl]pyridazine]
10 to 50 nM	c1ccc(C[C@@H](c2c[nH]cn2)c2cccc3c2OCC3)nc1 [Compound 44, 2-[(2R)-2-(2,3-dihydro-1-benzofuran-7-yl)-2-(1H-imidazol-4-yl)ethyl] pyridine]
> 500 nM	Cc1ccc(Cl)cc1C(Cc1cccnn1)c1c[nH]cn1 (centres unmarked) [Compound 225, 3-[2-(5-chloro-2-tolyl)-2-(4-imidazolyl)ethyl] pyridazine]
50 to 500 nM	COc1cccc(C[C@@H](c2c[nH]cn2)c2cccc(C)c2F)n1 (single isomer, unassigned) [Compound 6]

Compound	EC50
Cc1cccc([C@@H](Cc2cscn2)c2c[nH]cn2)c1C [Compound 119, 4-[(R)-2-(4-imidazolyl)-2-(2,3-xylyl)ethyl]-1,3-thiazole]	< 10 nM
Cc1nc(C[C@@H](c2cnc[nH]2)c2cccc(C)c2C)cs1 [Compound 102, 4-[(R)-2-(4-imidazolyl)-2-(2,3-xylyl)ethyl]-2-methyl-1,3-thiazole]	10 to 50 nM
Cc1cccc(C(Cc2cocn2)c2c[nH]cn2)c1C (centres unmarked) [Compound 126, 4-[2-(4-imidazolyl)-2-(2,3-xylyl)ethyl]-1,3-oxazole]	< 10 nM
Cc1cccc(C(Cc2ncco2)c2c[nH]cn2)c1C (centres unmarked) [Compound 117, 2-[2-(4-imidazolyl)-2-(2,3-xylyl)ethyl]-1,3-oxazole]	50 to 500 nM
Cc1cncc(C[C@H](c2cnc[nH]2)c2cccc(C)c2C)n1 [Compound 82, 2-[(2S)-2-(2,3-dimethylphenyl)-2-(1H-imidazol-4-yl)ethyl]-6-methylpyrazine]	50 to 500 nM
COc1nccc(C[C@@H](c2cnc[nH]2)c2cccc(C)c2C)n1 [Compound 54, 4-[(2R)-2-(2,3-dimethylphenyl)-2-(1H-imidazol-4-yl)ethyl]-2-methoxy-pyrimidine]	50 to 500 nM
Cc1cccc([C@H](Cc2ccnc(C(F)(F)F)n2)c2cnc[nH]2)c1C [Compound 72, 4-[(2S)-2-(2,3-dimethylphenyl)-2-(1H-imidazol-4-yl)ethyl]-2-(trifluoromethyl) pyrimidine]	< 10 nM
Cc1cccc(C(Cc2ccc(Cl)cn2)c2cnc[nH]2)c1C (centres unmarked) [Compound 90, 5-chloro-2-[2-(2,3-dimethylphenyl)-2-(1H-imidazol-4-yl)ethyl] pyridine]	< 10 nM
Cc1cccc([C@H](Cc2cncs2)c2c[nH]cn2)c1C [Compound 129, 5-[(S)-2-(4-imidazolyl)-2-(2,3-xylyl)ethyl]-1,3-thiazole]	< 10 nM
Cc1ccnc(C[C@H](c2cnc[nH]2)c2cccc(C)c2C)n1 [Compound 78, 2-[(2S)-2-(2,3-dimethylphenyl)-2-(1H-imidazol-4-yl)ethyl]-4-methylpyrimidine]	> 500 nM
Cc1cnc(C[C@H](c2cnc[nH]2)c2cccc(C)c2C)nc1 [Compound 74, 2-[(2S)-2-(2,3-dimethylphenyl)-2-(1H-imidazol-4-yl)ethyl]-5-methyl-pyrimidine]	> 500 nM
Cc1cccc(C(Cc2ccncc2)c2cnc[nH]2)c1C (centres unmarked) [Compound 97, 4-[2-(2,3-dimethylphenyl)-2-(1H-imidazol-5-yl)ethyl] pyridine]	< 10 nM

Source: US20260042769A1, “TRIARYL AGONISTS OF ALPHA-2 ADRENERGIC RECEPTORS” (ALCEPTOR THERAPEUTICS, INC., priority 2023, published 2026)
